{"source": "BindingDB's records for doi:10.1111/cbdd.12121", "about": "(University of California San Diego, 2013)", "data": [{"target": "T1, Farnesyl pyrophosphate synthase (Homo sapiens, UniProt P14324)", "T1 sequence (P14324 whole entry)": "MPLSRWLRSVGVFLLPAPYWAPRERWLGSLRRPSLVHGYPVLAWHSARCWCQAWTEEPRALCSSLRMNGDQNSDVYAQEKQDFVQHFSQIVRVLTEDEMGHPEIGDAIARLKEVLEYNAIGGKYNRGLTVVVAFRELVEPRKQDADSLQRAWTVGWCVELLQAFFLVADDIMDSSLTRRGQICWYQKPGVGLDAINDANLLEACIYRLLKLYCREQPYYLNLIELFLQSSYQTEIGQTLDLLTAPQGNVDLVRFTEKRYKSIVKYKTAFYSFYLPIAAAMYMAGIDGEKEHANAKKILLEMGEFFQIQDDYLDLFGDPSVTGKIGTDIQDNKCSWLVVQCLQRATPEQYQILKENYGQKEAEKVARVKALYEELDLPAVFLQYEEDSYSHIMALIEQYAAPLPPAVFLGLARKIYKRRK", "experiment": "Inhibition Assay", "conditions": "pH 7.4; 25 °C", "source_text": "Human FPPS was expressed and purified and inhibition assays carried out as described previously.", "units": {"IC50": "µM"}, "values": [{"smiles": "O=C(Nc1cccc(C2=NCCN2)c1)c1ccc(C(=O)Nc2cccc(C3=NCCN3)c2)cc1", "note": "[35839, 19]", "IC50": 13.7}, {"smiles": "O=C(Nc1ccccc1C1=NCCN1)c1ccc(C(=O)Nc2ccccc2C2=NCCN2)cc1", "note": "[35844, 17]", "IC50": 7}, {"smiles": "O=C(Nc1cccc(C2=NCCN2)c1)c1ccc(-c2ccc(C(=O)Nc3cccc(C4=NCCN4)c3)cc2)cc1", "note": "[50460, 14]", "IC50": 1.8}, {"smiles": "Nc1cc(C(=O)Nc2cccc(C3=NCCN3)c2)ccc1C(=O)Nc1cccc(C2=NCCN2)c1", "note": "[50464, 21]", "IC50": 21}, {"smiles": "Nc1cc(C(=O)Nc2ccc(C3=NCCN3)cc2)ccc1C(=O)Nc1ccc(C2=NCCN2)cc1", "note": "[50469, 20]", "IC50": 20.3}, {"smiles": "O=C(Nc1ccc(C2=NCCN2)cc1)c1cccc(C(=O)Nc2ccc(C3=NCCN3)cc2)c1", "note": "[53212, 15]", "IC50": 1.9}, {"smiles": "O=C(Nc1ccc(C2=NCCN2)cc1)c1ccc(C(=O)Nc2ccc(C3=NCCN3)cc2)c([NH+]([O-])O)c1", "note": "(stereo unspecified) [60340, 13]", "IC50": 109}, {"smiles": "CC1CNC(c2ccc(NC(=O)c3ccc(C(=O)Nc4ccc(C5=NC(C)CN5)cc4)c(N)c3)cc2)=N1", "note": "(stereo unspecified) [66761, 16]", "IC50": 2.5}, {"smiles": "Nc1c(C(=O)Nc2ccc(C3=NCCN3)cc2)cccc1C(=O)Nc1ccc(C2=NCCN2)cc1", "note": "[72564, 22]", "IC50": 22.3}, {"smiles": "O=C(Nc1ccc(C2=NCCN2)c(O)c1)c1ccc(C(=O)Nc2ccc(C3=NCCN3)c(O)c2)cc1", "note": "[76527, 23]", "IC50": 35}, {"smiles": "NC(=O)c1cc(NC(=O)c2ccc(C(=O)Nc3cc(C(N)=O)cc(C4=NCCN4)c3)cc2)cc(C2=NCCN2)c1", "note": "[100873, 18]", "IC50": 10.7}]}]}
